Columns and labels:
[1] = biological target: T1, Muscarinic acetylcholine receptor M2 (Homo sapiens, UniProt P08172); assay: Inhibition of [3H]NMS dissociation from muscarinic M2 receptor in Na,K,Pi buffer
T1 sequence (P08172 whole entry): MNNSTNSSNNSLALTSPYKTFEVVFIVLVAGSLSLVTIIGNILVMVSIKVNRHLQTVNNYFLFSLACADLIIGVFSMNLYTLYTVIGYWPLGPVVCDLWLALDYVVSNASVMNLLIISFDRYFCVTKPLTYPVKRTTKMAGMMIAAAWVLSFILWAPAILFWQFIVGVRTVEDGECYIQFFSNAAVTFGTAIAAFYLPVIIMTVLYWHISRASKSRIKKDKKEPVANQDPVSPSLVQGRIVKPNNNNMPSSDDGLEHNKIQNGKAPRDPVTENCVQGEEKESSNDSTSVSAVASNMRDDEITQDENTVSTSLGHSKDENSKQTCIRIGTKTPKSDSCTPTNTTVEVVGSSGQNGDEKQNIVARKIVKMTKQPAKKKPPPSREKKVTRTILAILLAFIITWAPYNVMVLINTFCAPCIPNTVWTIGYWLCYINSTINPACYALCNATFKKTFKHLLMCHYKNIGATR

[2] = biological target: T1, Muscarinic acetylcholine receptor M2; assay: Inhibition of [3H]NMS dissociation from muscarinic M2 receptor in hepes buffer
[3] = Selectivity for muscle type nAChR over muscarinic M2 receptor in hepes buffer
Acetylcholine receptor = Acetylcholine receptor (Torpedo californica, UniProt P02710+P02712+P02714+P02718); assay: Displacement of (+/-)-[3H]epibatidine from muscle type nAChR of Torpedo californica in hepes buffer; assay type: tissue-based, Tetronarce californica
Acetylcholine receptor, sequence (P02710 whole entry): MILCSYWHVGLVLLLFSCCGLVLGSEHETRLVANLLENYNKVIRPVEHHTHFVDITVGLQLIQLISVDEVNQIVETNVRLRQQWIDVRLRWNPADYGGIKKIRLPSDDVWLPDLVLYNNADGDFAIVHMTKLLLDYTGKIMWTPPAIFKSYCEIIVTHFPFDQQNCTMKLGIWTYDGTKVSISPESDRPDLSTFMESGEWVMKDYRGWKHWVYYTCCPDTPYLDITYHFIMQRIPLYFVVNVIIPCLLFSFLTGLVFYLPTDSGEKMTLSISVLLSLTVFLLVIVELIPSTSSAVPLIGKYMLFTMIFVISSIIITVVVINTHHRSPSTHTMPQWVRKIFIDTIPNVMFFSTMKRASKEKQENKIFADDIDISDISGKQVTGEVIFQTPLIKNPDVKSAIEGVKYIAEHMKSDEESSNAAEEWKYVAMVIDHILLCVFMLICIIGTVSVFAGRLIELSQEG
Acetylcholine receptor, sequence (P02712 whole entry): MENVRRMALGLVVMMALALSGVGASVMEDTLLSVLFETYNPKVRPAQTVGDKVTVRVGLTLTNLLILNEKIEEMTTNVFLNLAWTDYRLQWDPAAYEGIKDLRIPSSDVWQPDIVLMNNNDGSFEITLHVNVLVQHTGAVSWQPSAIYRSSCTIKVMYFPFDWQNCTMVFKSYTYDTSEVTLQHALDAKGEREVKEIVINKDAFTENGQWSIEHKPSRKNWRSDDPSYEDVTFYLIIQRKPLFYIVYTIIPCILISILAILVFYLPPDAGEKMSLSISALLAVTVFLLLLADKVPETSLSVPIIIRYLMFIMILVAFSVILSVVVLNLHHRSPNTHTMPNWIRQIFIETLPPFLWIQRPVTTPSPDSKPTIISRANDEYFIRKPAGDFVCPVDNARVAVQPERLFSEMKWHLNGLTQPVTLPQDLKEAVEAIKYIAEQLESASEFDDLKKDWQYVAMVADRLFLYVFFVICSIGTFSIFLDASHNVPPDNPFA
Acetylcholine receptor, sequence (P02718 whole entry): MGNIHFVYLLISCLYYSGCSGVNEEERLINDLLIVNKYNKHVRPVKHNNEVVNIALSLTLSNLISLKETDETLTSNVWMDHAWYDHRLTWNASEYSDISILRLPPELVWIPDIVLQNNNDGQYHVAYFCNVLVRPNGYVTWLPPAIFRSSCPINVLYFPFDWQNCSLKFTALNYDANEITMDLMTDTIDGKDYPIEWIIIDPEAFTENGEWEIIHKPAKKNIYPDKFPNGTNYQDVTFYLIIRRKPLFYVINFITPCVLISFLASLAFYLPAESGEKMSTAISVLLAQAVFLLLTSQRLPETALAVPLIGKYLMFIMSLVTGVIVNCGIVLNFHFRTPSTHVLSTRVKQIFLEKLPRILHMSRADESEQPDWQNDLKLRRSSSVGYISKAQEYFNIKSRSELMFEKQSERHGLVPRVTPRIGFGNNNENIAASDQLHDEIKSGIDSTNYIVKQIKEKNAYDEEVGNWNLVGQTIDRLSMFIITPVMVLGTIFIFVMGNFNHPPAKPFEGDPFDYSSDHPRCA
Acetylcholine receptor, sequence (P02714 whole entry): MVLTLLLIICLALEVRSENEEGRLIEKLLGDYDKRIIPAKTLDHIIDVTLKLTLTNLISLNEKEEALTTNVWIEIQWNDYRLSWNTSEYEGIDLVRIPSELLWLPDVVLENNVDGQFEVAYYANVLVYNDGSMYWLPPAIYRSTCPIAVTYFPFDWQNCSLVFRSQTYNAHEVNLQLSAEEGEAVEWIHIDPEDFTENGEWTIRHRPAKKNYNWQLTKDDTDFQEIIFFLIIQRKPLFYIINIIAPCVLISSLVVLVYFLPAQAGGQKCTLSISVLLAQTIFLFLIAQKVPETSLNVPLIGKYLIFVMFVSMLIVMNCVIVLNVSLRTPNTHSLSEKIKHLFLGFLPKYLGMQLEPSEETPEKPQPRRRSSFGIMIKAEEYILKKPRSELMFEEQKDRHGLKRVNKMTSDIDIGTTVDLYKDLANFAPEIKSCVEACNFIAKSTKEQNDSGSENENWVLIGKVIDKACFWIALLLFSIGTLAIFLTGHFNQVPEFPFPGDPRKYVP

Structure (SMILES)	EC50 [2]	Selectivity ratio [3]	EC50 [1]	Ki (Acetylcholine receptor)
C=CC[N+]12CC[C@@]34c5ccccc5N5[C@@H]6OCC=C7C[N+]8(CC=C)CC[C@]9%10c%11ccccc%11N([C@@H]%11OCC=C(C1)[C@H](C[C@@H]32)[C@@H]%11[C@H]54)[C@H]9[C@H]6[C@H]7C[C@@H]%108 (stereo partly drawn) [DIALLYLCARACURIE V]			11.2 nM	1510 nM
C=CC[N+](C)(C)Cc1c2n(c3ccccc13)Cc1c(C[N+](C)(C)CC=C)c3ccccc3n1C2	2290 nM	4.2	110 nM	550 nM
C1=C2CN3CC[C@]45c6ccccc6N6[C@@H]7OCC=C8CN9CC[C@]%10%11c%12ccccc%12N([C@H](OC1)[C@@H]([C@H]64)[C@H]2C[C@H]35)[C@H]%10[C@H]7[C@H]8C[C@H]9%11 [CARACURINE V]			437 nM	> 100000 nM
C[N+]12CC[C@@]34c5ccccc5N5[C@@H]6OCC=C7C[N+]8(C)CC[C@]9%10c%11ccccc%11N([C@@H]%11OCC=C(C1)[C@H](C[C@@H]32)[C@@H]%11[C@H]54)[C@H]9[C@H]6[C@H]7C[C@@H]%108 (stereo partly drawn) [DIMETHYLCARACURIE V]			8.13 nM	5250 nM

Now from value to compound, other results behind:

EC50 [2]	Selectivity ratio [3]	Structure (SMILES)	EC50 [1]	Ki (Acetylcholine receptor)
11200 nM	34	C[N+](C)(C)Cc1c2n(c3ccccc13)Cc1c(C[N+](C)(C)C)c3ccccc3n1C2	229 nM	331 nM
16600 nM	1.5	CN(C)Cc1c2n(c3ccccc13)Cc1c(CN(C)C)c3ccccc3n1C2	447 nM	10700 nM
